# Reference: patent US6624187B1, “Long wave length absorbing bacteriochlorin alkyl ether analogs” (Health Research, Inc., priority 2000, dated 2003)
# Entries after “also recorded” stand apart in the source; their conditions may differ.
# Experiments:
# [1] = In vivo PDT efficacy of bacteriochlorin-N-hexylimide
# Excerpt: Compared to the anhydride ring system, compounds with fused imide ring system in other compounds have shown stability in vivo. For example, among non-porphyrin systems, amonafide, an imide derivative and its structural analogs are reported as anti-neoplastic agents in vitro as well as in vivo with good stability. While we could not know how this might apply to non-porphyrin systems, we investigated the effect of such cyclic structures in the bacteriochlorin system. Initially we followed our own methodology developed for the preparation of purpurin-18-N-alkylimides (U.S. Pat. No. 5,952,366 incorporated herein by reference). Unfortunately, that approach produced a complex reaction mixture. Thus, in a modified approach, bacteriopurpurin-a 2 was first reacted with an alkyl amine (e.g. n-hexyl amine). The formation of the intermediate amide was monitored by spectrophotometry and analytical thin layer chromatography. The intermediate amide analog 3, obtained as a mixture of two isomers, was reacted with diazomethane, and the solvent was removed under vacuum. The residue so obtained was re-dissolved in tetrahydrofuran, and solvent was evaporated. This procedure was repeated several times until the disappearance of the absorption at 765 nm and appearance of a new peak at 822 nm.
# [2] = test system: RIF tumor; assay: In vivo photosensitizing efficacy of bacteriopurpurinimides against RIF tumor; conditions: for Tumor Response (%): Day 7-90
# Protocol: The photosensitizers were dissolved in known quantity of Tween 80 (Aldrich) surfactant and diluted by a factor of 10 with 5% dextrose solution in water to produce a final Tween 80 concentration of 1%. The solution was then filtered through a syringe filter. The concentration of the solution was determined on the basis of the extinction coefficient value of the photosensitizer at the longest wavelength absorption.
# Before injecting the drug to the animals, the purity of the material was confirmed by HPLC using a Spectra-Physics system connected to a SP8 700 solvent delivery system and Kratos 757 absorption detector with a fixed wavelength at 405 or 786 nm. Two solvent systems were used in the HPLC analysis: solvent A was prepared by dissolving anhydrous dibasic sodium phosphate (1.0 g) in 400 ml water. To this was added HPLC grade methanol (600 ml). The pH of the solution was adjusted to 7.5 with phosphoric acid; and solvent B was prepared by dissolving anhydrous dibasic sodium phosphate (0.3 g) in 100 ml water, to this was added methanol (900 ml), and the pH was adjusted to 7.5 with phosphoric acid. Solvents A and B were used as gradient mode (0-10 min A, 10-40 min A-B, 40-50 min B, 50-60 min back to A). In some cases solvent B was used as isocratic mode (column reverse phase C-8, flow rate 1.5 ml/min). Prior to irradiation, the fur over grown and surrounding the tumor was removed with electric clippers. Twenty four hours after injecting the drug, the mouse was placed in a custom made aluminum holder. Standard light dose 75 mW/cm^2 for 30 min for a total incident light dose of 135 J/cm^2 from a tunable dye laser tuned to the maximum red absorption peak at 790 nm (in vivo absorption, determined by in vivo reflectance spectroscopy). Laser output was measured with a power meter.
# Following light exposure, the mice were kept in groups of 5/cage and supplied with pelleted food and water ad libitum. Tumor size and gross appearance of both tumor and overlying skin was monitored daily for 90 days after photo-illumination unless growth of non-responsive tumor require early sacrifice of those animals.
# Bacteriopurpurin-imides 5-7 above have been evaluated for in vivo studies in a mouse tumor model system (RIF tumor). […] The mice were treated with light (790 nm, 135 J/cm^2) after 24 h post injection of the drug (80% tumor cure on day 21 and 60% on day 90). […] The efficacy of the drug was also determined at variable drug and light doses.
# [3] = test system: RIF tumor; assay: Tumor uptake and in vivo absorption shift by in vivo reflectance spectroscopy; parameters: species or system mouse
# Protocol: FIGS. 4A and 4B show curves of in vivo light wave absorption of compound 7 in RIF tumor at 24 hours and 5 days post injection.
# The tumor uptake and in vivo shift in the long wavelength absorption of the bacteriopurpurin-imide 7 was determined by in vivo reflectance spectroscopy. […] Thus, the tumors were irradiated with light at that particular wavelength. […] In vivo studies with these and other bacteriochlorin analogs at variable treatment conditions are currently in progress.
# [4] = test system: mouse foot tissue; assay: Foot response phototoxicity in mouse foot tissue; assay type: in vivo; conditions: 0.47 mmol/kg I.V.; 135 J/cm^2 at 790 nm; feet illuminated 5 days after injection
# Protocol: Since prolonged cutaneous photosensitivity is a serious side-effect of Photofrin® administration, we tested the phototoxicity of 3-deacetyl-3-(1-heptyloxyethyl) bacteriopurpurin-18-N-hexylimide 7 in mouse foot tissue and the therapeutic drug and light doses. Mice were injected (I.V.) with 0.47 mmol/kg of the drug. Feet were illuminated with 135 J/cm^2 at 790 nm laser light on days 1, 2, 3, 4 and 5 (FIG. 5). Foot response was graded according to the following arbitrary scale: 0, no difference from normal; 0.1, very slight edema; 0.3, slight edema; 0.5, moderate edema; 0.75, large edema; 1, large edema with exudate; 1.2, moderate reddening with slight scaly or crusty appearance; 1.65, slight damage to toes; 1.75, definite damage or slight fusion of toes; 2.0, most toes fused; 2.5, foot almost shapeless with no toes; 3, only stub of foot remaining.
# [5] = injected dose 1.0 μmol/kg, light 790 nm 135J/cm^2 24 h post injection, C3H mice
# [6] = injected dose 0.2 μmol/kg, light 790 nm 175J/cm^2 24 h post injection
# [7] = injected dose 0.47 μmol/kg, light 790 nm 135J/cm^2 24 h post injection
compound,measurement,setting,value
3-Acetyl-bacteriopurpurin-18-N-hexylimide [Compound 4],in vivo PDT efficacy,[1],did not produce any significant in vivo PDT efficacy
"CCCCCCN1C(=O)c2c3nc(cc4[nH]c(cc5nc(cc6[nH]c2c(c6C)C1=O)[C@H](CC)[C@H]5C)c(C(C)O)c4C)[C@@H](C)[C@@H]3CCC(=O)OCCC (stereo partly shown) [Compound 5, 3-Deacetyl-3-(1-hydroxyethyl)bacteriopurrurin-18-N-hexylimide]",Tumor Response (%),[2]; [5],did not produce any PDT efficacy; also recorded: NO RESPONSE
"C=Cc1c(C)c2cc3nc(c4c5[nH]c(cc6nc(cc1[nH]2)[C@H](C)[C@H]6CC)c(C)c5C(=O)N(CCCCCC)C4=O)[C@@H](CCC(=O)OCCC)[C@@H]3C [Compound 6, 3-Deacetyl-3-vinyl-bacteriopurpurin-18-N-hexylimide Propylester]",Tumor Response (%),[2]; [5],did not produce any PDT efficacy; also recorded: NO RESPONSE
"CCCCCCCOC(C)c1c(C)c2cc3nc(c4c5[nH]c(cc6nc(cc1[nH]2)[C@H](C)[C@H]6CC)c(C)c5C(=O)N(CCCCCC)C4=O)[C@@H](CCC(=O)OCCC)[C@@H]3C (stereo partly shown) [Compound 7, 3-Deacetyl-3-(1-heptyloxyethyl)-bacteriopurpurin-N-hexylimide Propyl Ester]",in vivo stability of fused imide ring system,[3]; 5 day post injection,quite stable in vivo
same,tumor uptake,"[3]; day 5 versus day 1 post injection, RIF tumor",significantly higher tumor uptake at day 5 than day 1
same,mice tumor free on day 90,"[2]; drug dose 0.2 μmol/kg, light dose 175 J/cm^2",four out of six
same,mice died after the light treatment,"[2]; drug dose 1.0 μmol/kg, light 790 nm, 135 J/cm^2",6/6
same,Tumor Response (%),"[2]; injected dose 0.2 μmol/kg, light 790 nm 135J/cm^2 24 h post injection",did not show any PDT efficacy; also recorded: NO RESPONSE
same,Tumor Response (%) Day 7,[2]; [6],100%
same,Tumor Response (%) Day 21,[2]; [6],70%
same,Tumor Response (%) Day 90,[2]; [6],70%
same,Tumor Response (%) Day 7,[2]; [7],80%
same,Tumor Response (%) Day 21,[2]; [7],80%
same,Tumor Response (%) Day 90,[2]; [7],60%
same,Tumor Response (%),[2]; [5],ALL MICE DIED
same,foot response phototoxicity,[4],did not show any toxicity
